Values of other authors in patent US20110105442A2, “MEANS AND METHODS FOR CONTROLLING COMMENSALES” (Biotechnology Research And Information Network, AG …, priority 2008, published 2011).
Where two headings read alike, the source gives them in different places.

Tested on: certain Gram-positive and Gram-negative bacteria including commensales of the skin
Details: Malmstrøm et al., 2002, biofilm not assayed

Compound: C/C=C/C1=CC(=O)[C@H](O)[C@H]1O (stereo in doubt) [Terrein, 4,5-Dihydroxy-3-(1-propenyl)-2-cyclopenten-1-one]
- antibacterial activity: weak antibacterial activity
- antibacterial activity (listed as terrein): weak to negligible activity
